US11447486B2, “2-amino-benzimidazole derivatives and their use as 5-lipoxygenase and/or prostaglandin E synthase inhibitors” (INSTITUT PASTEUR KOREA, priority 2014, dated 2022)
pEC50, pIC50: −log10 of the molar value.

How the values were obtained:
[1] = target: T1, human 5-LOX (Homo sapiens, UniProt P09917); experiment: 5-LOX enzyme activity, fluorescence method (5-HPETE, H2DCFDA); assay type: biochemical; settings: read-out: 5-LO (IC50)
T1 construct: purchased Cayman 60402; host or cells: insect cells (lysate)
T1 sequence (P09917 1-674): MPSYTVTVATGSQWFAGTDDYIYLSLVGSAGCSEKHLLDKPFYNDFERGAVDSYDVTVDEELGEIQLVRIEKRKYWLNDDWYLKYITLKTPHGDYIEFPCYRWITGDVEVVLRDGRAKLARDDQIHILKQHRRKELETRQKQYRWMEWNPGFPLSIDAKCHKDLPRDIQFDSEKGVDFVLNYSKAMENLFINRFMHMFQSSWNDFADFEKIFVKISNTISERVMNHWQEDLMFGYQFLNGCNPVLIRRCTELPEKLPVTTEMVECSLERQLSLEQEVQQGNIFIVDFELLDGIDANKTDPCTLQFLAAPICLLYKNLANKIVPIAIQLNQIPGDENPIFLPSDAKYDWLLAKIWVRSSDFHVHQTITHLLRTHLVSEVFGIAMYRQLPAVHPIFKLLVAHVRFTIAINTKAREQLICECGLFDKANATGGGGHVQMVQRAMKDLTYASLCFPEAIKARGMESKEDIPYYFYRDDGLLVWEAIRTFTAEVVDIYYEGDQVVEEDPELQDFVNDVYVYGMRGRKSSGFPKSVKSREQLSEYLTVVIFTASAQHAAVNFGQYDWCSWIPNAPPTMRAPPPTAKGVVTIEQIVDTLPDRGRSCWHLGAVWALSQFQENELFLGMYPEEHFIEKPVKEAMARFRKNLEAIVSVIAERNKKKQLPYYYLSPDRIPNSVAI
Description: The activity of compounds against 5-LOX were determined by measuring LTB4 (leukotriene B4) levels and/or by a fluorescence method. Both approaches are outlined in more detail below;
The compound, in a dose response manner(0.5 nM to 10 uM), and enzyme mixture was pre-incubated for 5 minutes, and the enzymatic reaction was initiated by addition of ATP and arachidonic acid to a final concentration of 100 uM and 3 uM, respectively. […] All steps were carried out at room temperature.

[2] = tested on: Rat basophilic leukemia (RBL) cells; experiment: LTB4 secretion assay in RBL (rat basophilic leukemia cells); assay type: cell-based; settings: Rattus norvegicus, RBL
Description: Rat basophilic leukemia (RBL) cells (ATCC, Cat #CRL-2256) were maintained in EMEM (ATCC, Cat #30-2003) supplemented with 15% FBS. The day before RBL assay, cells were seeded at a concentration of 2×10^4 cells per well in 96-well plates. The media was replaced with 100 ul of EMEM supplemented with 0.5% FBS and compounds in dose response(5 nM to 100 uM) were added. After 15 min of pre-incubation at 37° C., arachidonic acid and calcium ionophore (A23187) were added to give a final concentration of 2.5 uM and 5 uM, respectively. After a further 10 min incubation at 37° C., culture supernatant was transferred and quantification of LTB4 was done with a Leukotriene B4 EIA kit (Cayman, Cat #520111) as instructed.

| SMILES | pIC50 [1] | pEC50 [2] |
| --- | --- | --- |
| FC1(F)CN(c2ccc3nc(NCc4ccc(Oc5ccc(Cl)cc5)cc4)[nH]c3c2)C1 [Compound 242] | 5.00 to 6.00 | > 5.00 |
| CCC(Nc1nc2ccc(Nc3cc(C(F)(F)F)n(C)n3)cc2n1C)c1ccc(Oc2ncc(C(F)(F)F)cn2)cc1 (stereo not shown) [Compound 520] | < 5.00 | > 5.00 |
| Cn1c(NCc2ccc(Oc3nccc4cc(Cl)ccc34)cc2)nc2ccc(NC3COC3)cc21 [Compound 439] | > 6.00 | 4.70 to 5.00 |
| Cn1c(NCc2ccc(Oc3ccc(Cl)cc3)cc2)nc2ccc(N3CCC3)cc21 [Compound 182] | > 6.00 | 4.70 to 5.00 |
| CCC(Nc1nc2ccc(NC3COC3)cc2n1C)c1ccc(Oc2ccc(C(F)(F)F)cn2)cc1 (stereo not shown) [Compound 549] | > 6.00 | > 5.00 |
| CC(C)(C(=O)c1ccc(CNc2nc3ccc(N)cc3[nH]2)cc1)C(F)(F)F [Compound 205] | > 6.00 | > 5.00 |
| Cn1c(NCc2ccc(Oc3ncc(Cl)cn3)cc2)nc2ccc(Nc3n[nH]cc3C(N)=O)cc21 [Compound 488] | 5.00 to 6.00 | < 4.70 |
| Nc1ccc2c(c1)nc(N1CCCC1)n2CCc1ccc(F)cc1 [Compound 50] | 5.00 to 6.00 | 4.70 to 5.00 |
| Cn1c(NCc2ccc(Oc3ncc(N)cn3)cc2)nc2ccc(N)cc21 [Compound 376] | > 6.00 | < 4.70 |
| Cn1c(NCc2cc(Cl)c(Oc3ncc(Cl)cn3)cc2Cl)nc2ccc(N)cc21 [Compound 432] | > 6.00 | > 5.00 |
| CC(Cc1ccc(Cl)cc1Cl)Nc1nc2cc(N)ccc2n1Cc1ccccc1 (stereo not shown) [Compound 144] | > 6.00 | 4.70 to 5.00 |
| Nc1ccc2nc(NCc3ccc(C(=O)C4CCCC4)cc3)[nH]c2c1 [Compound 168] | > 6.00 | > 5.00 |
| Cn1c(NCc2ccc(Oc3ncc(Cl)c4ccccc34)cc2)nc2ccc(NC3COC3)cc21 [Compound 400] | > 6.00 | > 5.00 |
| Nc1ccc2nc(N3CCC(O)C3)n(Cc3ccc(Oc4ccc(Cl)cc4)cc3)c2c1 (stereo not shown) [Compound 206] | > 6.00 | > 5.00 |
| Fc1ccc(CCNc2nc3cc(NC4COC4)ccc3[nH]2)cc1 [Compound 33] | > 6.00 | > 5.00 |
| Cn1c(NCc2ccc(Oc3ccc(Cl)cc3)cc2)nc2ccc(N)cc21 [Compound 167] | > 6.00 | < 4.70 |
| CCOC(c1ccc(CNc2nc3ccc(N)cc3[nH]2)cc1)c1ccccn1 (stereo not shown) [Compound 188] | > 6.00 | < 4.70 |
| Nc1ccc2[nH]c(N3CCC(Oc4ccc(OC(F)(F)F)cc4Cl)C3)nc2c1 (stereo not shown) [Compound 71] | > 6.00 | 4.70 to 5.00 |
| Cn1c(NCc2ccc(Oc3ccc4cc(Cl)ccc4n3)cc2)nc2ccc(N)cc21 [Compound 389] | > 6.00 | > 5.00 |

| SMILES | pIC50 [1] | pEC50 [2] |
| --- | --- | --- |
| COCCN(Cc1ccc(Oc2ccc(Cl)cn2)cc1)c1nc2ccc(NC3COC3)cc2n1C [Compound 339] | > 6.00 | 4.70 to 5.00 |
| Cc1cc(Oc2ccc(Cl)cn2)cc(C)c1CNc1nc2ccc(N)cc2n1C [Compound 334] | > 6.00 | 4.70 to 5.00 |
| CC(Nc1nc2ccc(N)cc2n1C)c1ccc(Oc2ccc(Cl)cn2)cc1 (stereo not shown) [Compound 260] | > 6.00 | > 5.00 |
| Cn1c(NCc2ccc(Oc3ccc4c(Cl)cccc4n3)cc2)nc2ccc(N)cc21 [Compound 424] | > 6.00 | > 5.00 |
| Cn1c(NCc2ccc(Oc3cnc(Cl)nc3)cc2)nc2ccc(N)cc21 [Compound 340] | > 6.00 | > 5.00 |
| FC(F)(F)Oc1ccc(OCCn2c(N3CCCC3)nc3ccc(N4CCC4)cc32)cc1 [Compound 84] | > 6.00 | > 5.00 |
| N#CCCNc1nc2ccc(NC3COC3)cc2n1Cc1ccc(Oc2ccc(Cl)cc2)cc1 [Compound 262] | < 5.00 | > 5.00 |
| Cn1nccc1-c1ccc(CNc2nc3cc(N)ccc3[nH]2)cc1 [Compound 200] | > 6.00 | > 5.00 |
| Cn1ccnc1CNc1ccc2nc(NCc3ccc(Oc4ncc(Cl)cn4)cc3)n(C)c2c1 [Compound 359] | > 6.00 | > 5.00 |
| Cn1c(NCc2ccc(Oc3ccc(OC(F)(F)F)cc3)cc2)nc2ccc(NC3COC3)cc21 [Compound 293] | > 6.00 | > 5.00 |
| Cn1c(NCc2ccc(Oc3ccc(Cl)cn3)cn2)nc2ccc(N)cc21 [Compound 299] | > 6.00 | > 5.00 |
| Cn1c(N(CCO)Cc2ccc(Oc3ccc(Cl)cn3)cc2)nc2ccc(NC3COC3)cc21 [Compound 318] | > 6.00 | < 4.70 |
| Cc1cc(CNc2nc3ccc(N)cc3n2C)cc(C)c1Oc1ncc(Cl)cn1 [Compound 411] | > 6.00 | < 4.70 |
| CN(C(=O)c1ccc(CNc2nc3ccc(NC4COC4)cc3n2C)cc1)c1ccc(Cl)cn1 [Compound 320] | > 6.00 | < 4.70 |
| COCCn1c(NCc2ccc(Oc3ccc(Cl)cn3)cc2)nc2ccc(N)cc21 [Compound 263] | > 6.00 | 4.70 to 5.00 |
| CN(C)c1nc2ccc(N3CCC(C(=O)c4ccc(Cl)cn4)C3)cc2[nH]1 (stereo not shown) [Compound 230] | > 6.00 | > 5.00 |
| Cn1c(NCc2ccc(Oc3ncc(Cl)cn3)cc2)nc2ccc(NCCN3CCOCC3)cc21 [Compound 379] | > 6.00 | > 5.00 |
| CCC(Nc1nc2cc(N)ccc2[nH]1)c1ccc(Oc2ccc(Cl)cc2)cc1 (stereo not shown) [Compound 124] | > 6.00 | > 5.00 |

Other lines, results leading:

| pIC50 [1] | pEC50 [2] | SMILES |
| --- | --- | --- |
| > 6.00 | < 4.70 | Nc1ccc2[nH]c(N3CCC(C(=O)Nc4ccc(OC(F)(F)F)cc4)C3)nc2c1 (stereo not shown) [Compound 64] |
| > 6.00 | < 4.70 | Nc1ccc2nc(NCC(=O)O)n(Cc3ccc(Oc4ccc(Cl)cc4)cc3)c2c1 [Compound 225] |
| > 6.00 | < 4.70 | Cn1c(NCc2ccc(Oc3ccc(Cl)cn3)nc2)nc2ccc(N)cc21 [Compound 308] |
| > 6.00 | < 4.70 | CN(C)c1nc2cc(N3CCCC(Oc4ccc(OC(F)(F)F)cc4)C3)ccc2[nH]1 (stereo not shown) [Compound 183] |
| > 6.00 | < 4.70 | Cn1c(NCc2ccc(Oc3nccc(C(F)(F)F)n3)cc2)nc2ccc(N)cc21 [Compound 363] |
| > 6.00 | > 5.00 | Cn1c(NCc2ccc(-n3ccc4cc(Cl)cnc43)cc2)nc2ccc(NC3COC3)cc21 [Compound 446] |
| > 6.00 | > 5.00 | CN(C)c1nc2cc(NCc3coc(Nc4ccc(Cl)cc4)n3)ccc2[nH]1 [Compound 214] |
| > 6.00 | > 5.00 | Cn1c(NCc2ccc(Oc3cc(Cl)ncn3)cc2)nc2ccc(N)cc21 [Compound 393] |
| > 6.00 | > 5.00 | Nc1ccc2nc(NCc3ccc4c(c3)NCCC4)[nH]c2c1 [Compound 162] |
| > 6.00 | > 5.00 | Cn1c(NCc2ccc(Oc3ncc(Br)cn3)cc2)nc2ccc(N)cc21 [Compound 361] |
| > 6.00 | 4.70 to 5.00 | FC(F)(F)Oc1ccc(OC2CCN(c3ccc4nc(NCCN5CCOCC5)[nH]c4c3)C2)cc1 (stereo not shown) [Compound 143] |
| > 6.00 | > 5.00 | Cn1c(NCc2ccc(Oc3ccc(Cl)cn3)cc2)nc2ccc(NC(C)(C)CO)cc21 [Compound 325] |
| > 6.00 | 4.70 to 5.00 | Cn1c(NCc2ccc(Oc3ccc(Cl)cc3)cc2)nc2ccc(NCC(N)=O)cc21 [Compound 170] |
| > 6.00 | > 5.00 | Cn1c(NCc2ccc(Oc3ccc(Cl)nc3)cc2)nc2ccc(N)cc21 [Compound 280] |
| > 6.00 | > 5.00 | CN(C)c1nc2ccc(NCc3ccc(N(CC(N)=O)c4ccc(F)cc4)cc3)cc2[nH]1 [Compound 212] |
| > 6.00 | > 5.00 | Cn1c(NCc2ccc3c(ccn3-c3ccc(Cl)cn3)c2)nc2ccc(N)cc21 [Compound 451] |
| > 6.00 | > 5.00 | COc1ccc(Oc2ccc(CNc3nc4ccc(NC5COC5)cc4n3C)cc2)nc1 [Compound 331] |
| > 6.00 | 4.70 to 5.00 | Cn1c(NCc2ccc(Oc3nccc4cc(Cl)ccc34)cc2)nc2ccc(N)cc21 [Compound 438] |
| > 6.00 | > 5.00 | CC(C)c1cc(CNc2nc3ccc(N)cc3n2C)ccc1Oc1ncc(Cl)cn1 [Compound 395] |
